{
  "source": "patent US20100323990A1",
  "about": "“SHIP 1 MODULATOR PRODRUGS” (THE UNIVERSITY OF BRITISH COLUMBIA, priority 2006, published 2010)",
  "key": {"Mast cells": {"system": "Mast cells", "test": "Stimulation of mast cells by FcεRI crosslinking (Assay 4)", "format": "cell-based", "settings": "test compound 30 min prior to DNP-HSA", "procedure": "Assay 1) In vitro testing in a SHIP enzyme assay. Test compounds were dissolved in a suitable solvent (e.g. EtOH, DMSO and others) and diluted into aqueous buffer (20 mM Tris HCl, pH 7.5 and 10 mM MgCl2). SHIP enzyme assays were performed in 96-well microtitre plates with 10 ng of enzyme/well in a total volume of 25 μL of 20 mM Tris HCl, pH 7.5 and 10 mM MgCl2. SHIP enzyme was incubated with test extracts (provided in solvent) or vehicle for 15 min at 23° C. before the addition of 100 μM inositol-1,3,4,5-tetrakisphosphate (Echelon Biosciences Inc, Salt Lake City, Utah). After 20 min at 37° C. and the amount of inorganic phosphate released assessed by the addition of Malachite Green reagent and absorbance measurement at 650 nm. Assay 2) Macrophage TNF-α production. J774.1a macrophage cells were treated with 10 μg/mL of test compound dissolved in solvent (e.g. cyclodextran) for 40 minutes prior to the addition of 100 ng/mL LPS. Culture supernatants were collected after 2 hr and 5 hr for TNF-α determination by ELISA. Assay 3) Macrophage TNF-α NO assay. J774.1a macrophage cells were treated with 10 μg/ml of test compound dissolved in solvent for 40 minutes prior to the addition of LPS. Culture supernatants were collected after 24 hr. for determination of NO concentration using the Griess reagent. Assay 4) Stimulation of mast cells by FcεRI crosslinking. Mast cells were pre-loaded overnight in BMMC medium lacking IL-3 with 0.1 μg/ml anti-DNP IgE (SPE-7, Sigma, Oakville, Ont). For calcium flux measurements, cells were incubated with 2 μM fura 2-acetoxymethyl ester (Molecular Probes, Eugene, Oreg.) in Tyrode's buffer at 23° C. for 45 min. Cells were then washed and incubated in the presence of the test compound 30 min prior to stimulation with the indicated concentration of DNP-human serum albumin (DNP-HSA). Calcium influx was monitored by spectrofluorometry as described previously. For analysis of intracellular signaling, cells were pre-loaded with anti-DNP IgE as above, pre-treated with the test compound for 30 min at 37° C. and stimulated with 20 ng/ml DNP-HSA for 5 min. Total cell lysates were then prepared and analyzed for phospho-PKB, phospho-p38^MAPK, phospho-MAPK, Grb-2 (Cell Signalling, Mississauga, Ont) and SHIP^6 by immunoblot analysis. Assay 5) Mouse acute cutaneous anaphylaxis model. […] The ability of SHIP activators to reduce tumor cell survival was assessed in MM cell lines treated with the test compound. The lines OPM1, OPM2, MM.1S and RPMI 8226 were plated at a density of 1×10^5 cells/mL in 200 μL of medium with various concentrations of the test compound, and viable cell numbers were determined on day 3 and day 5 by trypan blue exclusion. […]"}, "SHIP C2 domain": {"system": "SHIP C2 domain", "test": "Protein lipid overlay assay, C2 domain binding to PI-3,4-P2", "settings": "4 μM Compound 100, 30 min at 23° C.", "procedure": "Protein lipid overlay (PLO) assays were performed essentially as described with minor modifications. Lyophilized phosphatidylinositol-3,4-bisphosphate diC16 (PIP2, Echelon Biosciences, Salt Lake City, Utah) was reconstituted in a 2:1.8 solution of methanol and water. PVDF membranes (Millipore, Missisauga, Ont) were initially wetted in methanol for 1 minute, and washed 3×5 min with water, and gently agitated in TBST buffer (20 mM Tris pH 7.5, 0.15 M NaCl (TBS) with 0.05% Tween 20) at 23° C. overnight. Treated membranes were air-dried and dilutions of reconstituted lipids were spotted in 1 μl aliquots to give the indicated amount of PIP2 per membrane spot. Membranes were dried completely and blocked with blocking buffer (3% BSA in TBS with 0.05% NaN3) for 1 h at 23° C. Purified, recombinant C2 domain was diluted into blocking buffer (5 μM final) and treated with 4 μM Compound 100 or EtOH control for 30 min at 23° C. prior to overnight incubation with the PIP2 spotted membranes. […] After washing, bound proteins were detected and quantified on a Li-Cor Odyssey scanner (Lincoln, Nebr.).\nIsolated recombinant, His6-tagged C2 domain was expressed and its PI-3,4-P2 binding ability was determined using protein lipid overlay assays. Purified C2 domain was incubated with membrane strips spotted with PI-3,4-P2 and bound protein detected using an anti-His6 antibody. […]"}, "[1]": {"system": "100 protein kinase and phosphatase targets", "test": "Profiling against 100 protein kinase and phosphatase targets (SignalChem)", "format": "biochemical", "settings": "2 μM final concentration; changes <25% not considered significant", "procedure": "Compound profiling activity was undertaken using 100 protein kinase and phosphatase targets by SignalChem (Richmond, BC, Canada. www.signalchem.com) against compound Compound 100 (2 μM final concentration). Protein kinase assays were performed in the presence of 50 μM ATP at 30° C. for 15 min. Protein phosphatase activites were determined using pNPP as substrate and were also performed at 37° C. for 15 min. The activity of the enzymes in the presence of Compound 100 was compared to that in the vehicle control and expressed as a % change in activity relative to that observed in the vehicle control. Changes in activity of <25% were not considered significant. Enzymes affected by Compound 100 are plotted in an expanded graph in FIG. 12B."}},
  "data": [
    {"smiles": "Cc1cc(O)cc2c1[C@]1(C)CCC3C(C)(C)CCC[C@]3(C)[C@H]1C2", "note": "(stereo partly drawn) [Compound 100]", "values": [
      {"measurement": "Assay 4: Stimulation of mast cells by FcεRI crosslinking, desired activity", "setting": "Mast cells", "value": "+"},
      {"measurement": "binding of C2 domain to PI-3,4-P2", "setting": "SHIP C2 domain", "value": "inhibited"},
      {"measurement": "off-target effects on 100 other kinases and phosphatases", "setting": "[1]", "value": "minimal off-target effects"}
    ]}
  ]
}
